Active and inactive are the calls of the source. The rule behind the calls is not given here.

Assay [1] relates to HL-60. Kind of assay: Growth inhibition of Homo sapiens (human) HL60 cells after 48 hr by MTT assay. To be noted: HL-60, 48 h. It counts as functional, cell-based. For orientation: Tetrazolium dyes change colour on reduction, which living cells bring about.
A further assay deals with Raji. Briefly: Growth inhibition of Homo sapiens (human) Raji cells after 48 hr by MTT assay. It counts as functional, cell-based.
For assay [2], the system named is MDA-MB-231. Briefly: Anticancer activity against Homo sapiens (human) MDA-MB-231 cells assessed as cell viability at 50 uM after 48 hr by MTT assay (reference value: 100%). The format is functional. The conditions noted are these: MDA-MB-231, 48 h, read-out: Activity.
Assay [3] concerns MDA-MB-231. Kind of assay: Growth inhibition of Homo sapiens (human) MDA-MB-231 cells after 48 hr by MTT assay. It counts as functional, cell-based.
The test system of assay [4] is HeLa. Briefly: Growth inhibition of Homo sapiens (human) HeLa cells after 48 hr by MTT assay. The format is functional, cell-based.
Assay [5] deals with MCF7. Kind of assay: Growth inhibition of Homo sapiens (human) MCF7 cells after 48 hr by MTT assay. The format is functional, cell-based.
Assay [6] has as its system MCF7. Kind of assay: Anticancer activity against Homo sapiens (human) MCF7 cells assessed as cell viability at 50 uM after 48 hr by MTT assay (reference value: 100%). It counts as functional. To be noted: MCF7, 48 h, read-out: Activity.
The test system of assay [7] is HeLa. Kind of assay: Anticancer activity against Homo sapiens (human) HeLa cells assessed as cell viability at 50 uM after 48 hr by MTT assay (reference value: 100%). It counts as functional. To be noted: read-out: Activity.
Assay [8] concerns HL-60. Briefly: Anticancer activity against Homo sapiens (human) HL60 cells assessed as cell viability at 50 uM after 48 hr by MTT assay (reference value: 100%). To be noted: HL-60, 48 h, read-out: Activity. The format is functional.

As to `O=C(c1cn(-c2ccccc2)nc1-c1ccsc1)N1CCN(c2ccncc2)CC1`, the IC50 with HL-60 [1] and in the assay with Raji was more than 100 µM in each case. For the same compound, the viability at 50 µM in the assay on MDA-MB-231 [2] was determined as 87.4%.

On to `Cc1cccc(C(C)C)c1OC(=O)c1cn(-c2ccccc2)nc1-c1ccsc1`, for which the “growth inhibition (GI)” value in the assay with MDA-MB-231 [3], in the assay on HeLa [4] and in the assay with MCF7 [5] was “inactive” throughout. The half-maximal inhibitory concentration (IC50) in the assay with HL-60 [1] and in the assay on Raji was more than 100 µM each time.

With `O=C(c1cn(-c2ccccc2)nc1-c1ccsc1)N1CCN(c2ccc(C(F)(F)F)cc2)CC1`, the viability at 50 µM in the assay on MCF7 [6] was 85.9%; in the assay on HeLa [7] it was 80.7%; in the assay on MDA-MB-231 [2] it was 84.2%. The concentration for 50% growth inhibition (GI50) (in general, the concentration giving 50% growth inhibition) in the assay with HL-60 [1] is 36.7 µM; with Raji it was 32 µM.

Consider `CC(C)c1cccc(OC(=O)c2cn(-c3ccccc3)nc2-c2ccsc2)c1`, for which the “growth inhibition (GI)” value in the assay on MDA-MB-231 [3], in the assay with HeLa [4] and in the assay on MCF7 [5] was “inactive” in each case. In addition, the IC50 with HL-60 [1] and with Raji was more than 100 µM in each case.

For `COc1ccc(OC(=O)c2cn(-c3ccccc3)nc2-c2ccsc2)cc1`, the “growth inhibition (GI)” value with MDA-MB-231 [3], in the assay with HeLa [4] and with MCF7 [5] was “inactive” each time. In addition, the IC50 in the assay with HL-60 [1] and with Raji was more than 100 µM each time.

With `O=C(Oc1ccc(-c2ccccc2)cc1)c1cn(-c2ccccc2)nc1-c1ccsc1`, the “growth inhibition (GI)” value with MDA-MB-231 [3], with HeLa [4] and in the assay with MCF7 [5] was “inactive” throughout. The half-inhibitory concentration (IC50) in the assay with HL-60 [1] and with Raji was more than 100 µM throughout.

In the case of `O=C(c1cn(-c2ccccc2)nc1-c1ccsc1)N1CCOCC1`, the half-inhibitory concentration (IC50) in the assay with HL-60 [1] and with Raji was more than 100 µM in each case. Also, the viability at 50 µM with MDA-MB-231 [2] was 77.6%.

Take `CN1CCN(C(=O)c2cn(-c3ccccc3)nc2-c2ccsc2)CC1`: the IC50 in the assay on HL-60 [1] and in the assay on Raji was more than 100 µM each time.

For `O=C(Oc1ccc2ccccc2c1)c1cn(-c2ccccc2)nc1-c1ccsc1`, the “growth inhibition (GI)” value with MDA-MB-231 [3], with HeLa [4] and with MCF7 [5] was “inactive” in each case. In addition, the concentration for half-maximal inhibition (IC50) with HL-60 [1] and with Raji was more than 100 µM each time.

Turning to `O=C(O)c1cn(-c2ccccc2)nc1-c1ccsc1`, the IC50 in the assay with HL-60 [1] and with Raji was more than 100 µM each time. Also, the viability at 50 µM in the assay on MDA-MB-231 [2] came out at 80.9%.

In the case of `O=C(c1cn(-c2ccccc2)nc1-c1ccsc1)N1CCC(Cc2ccccc2)CC1`, the viability at 50 µM in the assay on HL-60 [8] turned out to be 39.1%; in the assay on MCF7 [6], 90.7%; with HeLa [7] it was 71.8%; in the assay on MDA-MB-231 [2], 82.8%. Moreover, the GI50 is 28.3 µM in the assay with HL-60 [1] and 25.2 µM in the assay with Raji.

`O=C(NCc1ccccc1)c1cn(-c2ccccc2)nc1-c1ccsc1`: the viability at 50 µM was 82.3% in the assay with HeLa [7] and 85% in the assay with MDA-MB-231 [2].

As to `O=C(c1cn(-c2ccccc2)nc1-c1ccsc1)N1CCN(c2ccccc2)CC1`, the figures for the viability at 50 µM in the assay on HeLa [7] and with MDA-MB-231 [2] were 67.9% and 81.4%, respectively.

In the case of `CCc1ccc(OC(=O)c2cn(-c3ccccc3)nc2-c2ccsc2)cc1`, the “growth inhibition (GI)” value in the assay with MDA-MB-231 [3], with HeLa [4] and in the assay on MCF7 [5] was “inactive” in each case. Also, the IC50 with HL-60 [1] and in the assay on Raji was more than 100 µM each time.
